Converted amounts (≈) assume the structure as drawn.
How the values were obtained:
Aphidius rhopalosiphi = assay: LR50; higher = less toxic; conditions: acute; duration: 14 days; mortality
Typhlodromus pyri = assay: LR50; higher = less toxic; conditions: chronic/long-term; duration: 14 days; mortality
Apis mellifera = conditions: acute; duration: 48 hours; oral; unspecified; mortality
Pimephales promelas = conditions: chronic/long-term; duration: 35 days; body weight
Daphnia magna = conditions: chronic/long-term; duration: 21 days; reproduction
Canidae = conditions: oral, M/F, Dog Other, hematological
Colinus virginianus = conditions: for LD50: acute, oral, mortality
Cyprinodon variegatus = conditions: acute; duration: 96 hours; mortality

`Cc1cc(C(F)(C(F)(F)F)C(F)(F)F)ccc1NC(=O)c1cccc(I)c1C(=O)NC(C)(C)CS(C)(=O)=O` [Flubendiamide] showed an LR50 (Aphidius rhopalosiphi) of over 675 g/ha, an LR50 (Typhlodromus pyri) of over 675 g/ha and an LD50 (Apis mellifera) of over 200 µg/piece. For the same compound, the NOEC (Pimephales promelas) was 60.2 µg/L, the NOEC (Daphnia magna) was 0.4 µg/L and the LC50 (Bibionidae; acute, duration: 48 hours, mortality) was 1.88 µg/mL (≈ 2.75 µM). For the same compound, the NOEC (Bibionidae; chronic/long-term, duration: 28 days, development) was 35 µg/L, the NOAEL (Canidae; chronic, duration: 1 years) was 2.21 mg/kg-day and the NOAEL (Canidae; subchronic, duration: 90 days) was 2.6 mg/kg-day. For the same compound, the LD50 (Rattus norvegicus; acute, oral, M/F, mortality) was over 2000 mg/kg, the NOAEL (Rattus norvegicus; chronic, M, hematological) was 1.7 mg/kg-day and the NOAEL (Rattus norvegicus; developmental, development) was 10 mg/kg-day. It also gave an NOAEL (Rattus norvegicus; reproduction developmental, F, reproduction) of 3.68 mg/kg-day, an LD50 (Colinus virginianus; diet) of over 1080 mg/kg-day and an LD50 (Colinus virginianus) of over 2000 mg/kg. For the same compound, the NOEL (Colinus virginianus; reproduction developmental, reproduction) was 10.2 mg/kg-day, the LC50 (Tagia sp.; acute, duration: 14 days, mortality) was over 1000 mg/kg and the NOEC (Tagia sp.; chronic/long-term, duration: 56 days, reproduction) was 1000 mg/kg. It also gave an NOEL (Anas platyrhynchos; reproductive, reproduction) of 26 mg/kg-day, an LD50 (Anas platyrhynchos; short-term, oral, feed, mortality) of over 1020 mg/kg-day and an LC50 (Cyprinodon variegatus) of over 0.0298 µg/mL.
